Measured values as given in patent US20140147860A1, “Acoustic Cytometry Methods and Protocols” (LIFE TECHNOLOGIES CORPORATION, priority 2011, published 2014).

How the values were obtained:
[1] = test system: S. aureus cells; test: Relative membrane potential in an S. aureus culture, BacLight Bacterial Membrane Potential Kit (DiOC2), flow cytometry; type: cell-based, Staphylococcus aureus; conditions: SYTOX Blue-positive dead cells excluded, data not shown
[2] = test system: Jurkat cells (T-cell leukemia, human); test: Apoptosis detection with the Annexin V Dead Cell Apoptosis Kit by acoustic flow cytometry; type: cell-based; conditions: 10 μM camptothecin for 4 hr, Annexin V staining, 488 nm excitation
Text: Apoptotic plasma membrane assays for flow cytometry: Some of the earliest detectable apoptotic events involve the plasma membrane, including changes in membrane asymmetry and permeability. In addition to annexin V conjugates, Life Technologies provides unique assays to measure membrane changes under conditions where annexin V binding is problematic, such as in adherent cells, and without using special buffers. Annexin V conjugates In apoptotic cells, phosphatidylserine (PS) is translocated from the inner to the outer leaflet of the plasma membrane, thus exposing PS to the external cellular environment. Annexin V labeled with a fluorophore can identify apoptotic cells by binding to PS exposed on the outer leaflet of the membrane. The Alexa Fluor® series of dyes, used in Life Technologies Annexin V Dead Cell Apoptosis Kits provides brighter and more photostable bioconjugates than other organic dyes with similar spectral characteristics. Apoptosis detection with the Annexin V Dead Cell Apoptosis Kit. Jurkat cells (T-cell leukemia, human) treated with 10 μM camptothecin for 4 hr (B) or untreated control (A). Cells were stained using the Annexin V Dead Cell Apoptosis Kit and analyzed by flow cytometry with 488 nm excitation on the Attune® Acoustic Focusing Cytometer with 530/30 Xnm and 575/24 nm bandpass filters. Data were acquired with a standard 100 XμL/min collection rate. […]

SMILES	red-shifted DiOC2 fluorescence (membrane potential), treated versus untreated sample [1]	percentage of apoptotic cells versus untreated control [2]
N#CC(C#N)=NNc1cccc(Cl)c1 [CCCP, carbonylcyanide 3-chlorophenylhydrazone]	increased red-shifted DiOC2 fluorescence in the untreated sample (−CCCP, green) as compared to the CCCP-treated sample	
CC[C@@]1(O)C(=O)OCc2c1cc1n(c2=O)Cc2cc3ccccc3nc2-1 [camptothecin]		higher percentage of apoptotic cells
